This is an account of results in patent publication US10172832B2, “Amide derivatives of N-urea substituted amino acids as formyl peptide receptor like-1 (FPRL-1) receptor modulators” (Allergan, Inc., priority 2011, dated 2019).

For this assay, the target named is T1, FPRL-1 (Homo sapiens, UniProt P25090).
T1 construct: expressed in transfected cells
T1 sequence (P25090 1-351): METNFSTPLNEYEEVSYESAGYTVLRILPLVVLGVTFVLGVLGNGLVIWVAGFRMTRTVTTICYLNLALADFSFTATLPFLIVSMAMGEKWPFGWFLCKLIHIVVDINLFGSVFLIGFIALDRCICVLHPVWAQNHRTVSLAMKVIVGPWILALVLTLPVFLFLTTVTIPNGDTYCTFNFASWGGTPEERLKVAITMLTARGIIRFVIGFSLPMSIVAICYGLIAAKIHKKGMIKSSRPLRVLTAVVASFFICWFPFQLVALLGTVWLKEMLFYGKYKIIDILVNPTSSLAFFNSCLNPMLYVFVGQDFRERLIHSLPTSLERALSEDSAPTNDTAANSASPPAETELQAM
Nature of the assay: compound-induced calcium activity on FLIPR Tetra in CHO-Gα16 cells stably expressing FPRL1. The conditions noted are these: for FPRL-1 Ga16-CHO (Rel. eff.): relative efficacy; for EC50: tested 0.61 to 10,000 nM, read-out: FPRL-1 Ga16-CHO EC50. In kind it is cell-based. The procedure:
CHO-Gα16 cells stably expressing FPRL1 were cultured in (F12, 10% FBS, 1% PSA, 400 μg/ml geneticin and 50 μg/ml hygromycin) and HEK-Gqi5 cells stable expressing FPR1 were cultured in (DMEM high glucose, 10% FBS, 1% PSA, 400 μg/ml geneticin and 50 μg/ml hygromycin). In general, the day before the experiment, 18,000 cells/well were plated in a 384-well clear bottom poly-d-lysine coated plate. The following day the screening compound-induced calcium activity was assayed on the FLIPR^Tetra. The drug plates were prepared in 384-well microplates using the EP3 and the MultiPROBE robotic liquid handling systems. Compounds were tested at concentrations ranging from 0.61 to 10,000 nM. Results are expressed as EC50 (nM) and efficacy values.

For the molecule `CSCC[C@H](NC(=O)Nc1ccc(Br)cc1)C(=O)NCC(=O)OC(C)(C)C` [Compound 80, tert-butyl {[(2S)-2-{[(4-bromophenyl)carbamoyl]amino}-4-(methylsulfanyl)butanoyl]amino}acetate], the “FPRL-1 Ga16-CHO (Rel. eff.)” value is “(0.98)” and the 50% effective concentration (EC50) was found to be 127 nM.
For `CC(C)C[C@H](NC(=O)Nc1ccc(Br)cc1)C(=O)NC(C)(C)C(=O)O` [Compound 74, 2-{[(2S)-2-{[(4-bromophenyl)carbamoyl]amino}-4-methylpentanoyl]amino}-2-methylpropanoic acid] the same measures were “(0.96)” and 1 nM.
For `CC(C)C[C@H](NC(=O)Nc1ccc(Br)cc1F)C(=O)NCCO` [Compound 36, (2S)-2-{[(4-bromo-2-fluorophenyl)carbamoyl]amino}-N-(2-hydroxyethyl)-4-methylpentanamide] the same measures were “(1.05)” and 77 nM.
For `CC(C)(C)OC(=O)CNC(=O)[C@H](Cc1c[nH]c2ccccc12)NC(=O)Nc1ccc(Br)cc1` (stereo in doubt) [Compound 90, tert-butyl {[2-{[(4-bromophenyl)carbamoyl]amino}-3-(1H-indol-3-yl)propanoyl]amino}acetate] the same measures were “(1.03)” and 305 nM.
Consider `CC(C)C[C@H](NC(=O)Nc1ccc(Br)cc1F)C(=O)N[C@@H](C)C(=O)OC(C)(C)C` [Compound 38, tert-butyl(2S)-2-{[(2S)-2-{[(4-bromo-2-fluorophenyl)carbamoyl]amino}-4-methylpentanoyl]amino}propanoate], for which the “FPRL-1 Ga16-CHO (Rel. eff.)” value is recorded as “(1.00)” and the half-maximal effective concentration (EC50) came out at 174 nM.
In the same order, the values of `CCC[C@H](NC(=O)Nc1ccc(Br)cc1F)C(=O)NCC(C)=O` [(2S)-2-{[(4-bromo-2-fluorophenyl)carbamoyl]amino}-N-(2-oxopropyl)pentanamide] are “(0.92)” and 92 nM.
In the same order, the values of `CCC[C@H](NC(=O)Nc1ccc(Br)cc1F)C(=O)NCC(=O)O` [{[(2S)-2-{[(4-bromo-2-fluorophenyl)carbamoyl]amino}pentanoyl]amino}acetic acid] are “(0.92)” and 4.8 nM.
For `CCC[C@H](NC(=O)[C@H](CC(C)C)NC(=O)Nc1ccc(Br)cc1)C(=O)OC(C)(C)C` [Compound 49] the same measures were “(1.06)” and 13 nM.
As for `CC(C)C[C@H](NC(=O)Nc1ccc(Br)cc1)C(=O)N[C@H](C(=O)OC(C)(C)C)C(C)C` [Compound 42, tert-butyl(2S)-2-{[(2S)-2-{[(4-bromophenyl)carbamoyl]amino}-4-methylpentanoyl]amino}-3-methylbutanoate], the “FPRL-1 Ga16-CHO (Rel. eff.)” value is listed as “(0.98)” and the EC50 was found to be 68 nM.
Take `CC(C)CC(C)(NC(=O)Nc1ccc(Br)cc1)C(=O)NCC(=O)O` (centres unmarked) [Compound 56, {[2-{[(4-bromophenyl)carbamoyl]amino}-2,4-dimethylpentanoyl]amino}acetic acid]: the “FPRL-1 Ga16-CHO (Rel. eff.)” value is given as “(0.98)” and the EC50 amounted to 22 nM.
In the case of `CC(C)(C)OC(=O)CNC(=O)[C@H](CCS(C)(=O)=O)NC(=O)Nc1ccc(Br)cc1` [Compound 81, tert-butyl {[(2S)-2-{[(4-bromophenyl)carbamoyl]amino}-4-(methylsulfonyl)butanoyl]amino}acetate], the “FPRL-1 Ga16-CHO (Rel. eff.)” value was “(0.97)” and the EC50 came to 1240 nM.
For `CC(C)(C)OC(=O)CNC(=O)C(CC(N)=O)NC(=O)Nc1ccc(Br)cc1` (centres unmarked) [Compound 88, tert-butyl {[4-amino-2-{[(4-bromophenyl)carbamoyl]amino}-4-oxobutanoyl]amino}acetate] the same measures were “(0.90)” and 2310 nM.
In the same order, the values of `CC(C)C[C@H](NC(=O)Nc1ccc(Br)cc1)C(=O)N[C@H](C(=O)O)c1ccccc1` [Compound 52, (2S)-{[(2S)-2-{[(4-bromophenyl)carbamoyl]amino}-4-methylpentanoyl]amino}(phenyl)ethanoic acid] are “(1.08)” and 9.1 nM.
With `CC(C)C[C@H](NC(=O)Nc1ccc(Br)cc1)C(=O)N[C@H](C)CO` [Compound 48, (2S)-2-{[(4-bromophenyl)carbamoyl]amino}-N-[(1R)-2-hydroxy-1-methylethyl]-4-methylpentanamide], the EC50 amounted to 3 nM.
As for `CC(C)C[C@H](NC(=O)Nc1ccc(Br)cc1)C(=O)NCC(=O)N(C)C` [Compound 61, (2S)-2-{[(4-bromophenyl)carbamoyl]amino}-N-[2-(dimethylamino)-2-oxoethyl]-4-methylpentanamide], the “FPRL-1 Ga16-CHO (Rel. eff.)” value was “(0.90)” and the EC50 was 1.4 nM.
In the same order, the values of `CC(C)C[C@H](NC(=O)Nc1ccc(S(C)(=O)=O)cc1)C(=O)NCC(=O)O` [Compound 78, {[(2S)-4-methyl-2-({[4-(methylsulfonyl)phenyl]carbamoyl}amino)pentanoyl]amino}acetic acid] are “(1.12)” and 459 nM.
For `CC(C)C[C@H](NC(=O)Nc1ccc(Br)cc1)C(=O)N[C@H](C(=O)OC(C)(C)C)c1ccccc1` [Compound 50, tert-butyl(2S)-{[(2S)-2-{[(4-bromophenyl)carbamoyl]amino}-4-methylpentanoyl]amino}(phenyl)ethanoate] the same measures were “(1.02)” and 122 nM.
On to `CC[C@H](C)[C@H](NC(=O)Nc1ccc(Br)cc1F)C(=O)NCC(=O)OC(C)(C)C` [Compound 10, tert-butyl{[(2S,3S)-2-{[(4-bromo-2-fluorophenyl)carbamoyl]amino}-3-methylpentanoyl]amino}acetate], for which the “FPRL-1 Ga16-CHO (Rel. eff.)” value is given as “(0.86)” and the 50% effective concentration (EC50) stood at 757 nM.
For the molecule `CC(C)C[C@H](NC(=O)Nc1ccc(Br)cc1)C(=O)NC(CO)CO` [Compound 48, (2S)-2-{[(4-bromophenyl)carbamoyl]amino}-N-[2-hydroxy-1-(hydroxymethyl)ethyl]-4-methylpentanamide], the EC50 amounted to 7.4 nM.
With `CC(C)C[C@H](NC(=O)Nc1ccc(Br)cc1F)C(=O)N[C@@H](C)C(=O)O` [Compound 39, (2S)-2-{[(2S)-2-{[(4-bromo-2-fluorophenyl)carbamoyl]amino}-4-methylpentanoyl]amino}propanoic acid], the “FPRL-1 Ga16-CHO (Rel. eff.)” value is reported as “(0.95)” and the concentration giving a half-maximal response (EC50) stood at 12 nM.
In the same order, the values of `CCC[C@H](NC(=O)[C@H](CC(C)C)NC(=O)Nc1ccc(Br)cc1)C(=O)O` [Compound 51, (2S)-2-{[(2S)-2-{[(4-bromophenyl)carbamoyl]amino}-4-methylpentanoyl]amino}pentanoic acid] are “(0.89)” and 1 nM.
In the same order, the values of `CCC[C@H](NC(=O)Nc1ccc(Br)cc1F)C(=O)NCC(=O)OC(C)(C)C` [tert-butyl {[(2S)-2-{[(4-bromo-2-fluorophenyl)carbamoyl]amino}pentanoyl]amino}acetate] are “(0.95)” and 83 nM.
Turning to `CC[C@H](C)[C@H](NC(=O)Nc1ccc(Br)cc1)C(=O)NCC(=O)OC(C)(C)C` [Compound 11, tert-butyl{[(2S,3S)-2-{[(4-bromophenyl)carbamoyl]amino}-3-methylpentanoyl]amino}acetate], the “FPRL-1 Ga16-CHO (Rel. eff.)” value is on record as “(0.85)” and the EC50 came to 280 nM.
